Laboratory results as given in ChEMBL document CHEMBL4419166, “Use of small molecule inhibitors to klf10 for modulation of t regulatory cells and cancer immunotherapy” (2017).
Active and inactive are the calls of the source. No cut-off for these calls is given here.

Assays:
[1] = target: T1, Krueppel-like factor 10 (Mus musculus) (UniProt O89091); experiment: Inhibition of KLF10 in mouse CD4+CD25- T cells assessed as reduction in Foxp3 mRNA expression at 50 uM incubated for 5 days by real time qPCR analysis relative to control; type: cell-based
T1 sequence (whole entry): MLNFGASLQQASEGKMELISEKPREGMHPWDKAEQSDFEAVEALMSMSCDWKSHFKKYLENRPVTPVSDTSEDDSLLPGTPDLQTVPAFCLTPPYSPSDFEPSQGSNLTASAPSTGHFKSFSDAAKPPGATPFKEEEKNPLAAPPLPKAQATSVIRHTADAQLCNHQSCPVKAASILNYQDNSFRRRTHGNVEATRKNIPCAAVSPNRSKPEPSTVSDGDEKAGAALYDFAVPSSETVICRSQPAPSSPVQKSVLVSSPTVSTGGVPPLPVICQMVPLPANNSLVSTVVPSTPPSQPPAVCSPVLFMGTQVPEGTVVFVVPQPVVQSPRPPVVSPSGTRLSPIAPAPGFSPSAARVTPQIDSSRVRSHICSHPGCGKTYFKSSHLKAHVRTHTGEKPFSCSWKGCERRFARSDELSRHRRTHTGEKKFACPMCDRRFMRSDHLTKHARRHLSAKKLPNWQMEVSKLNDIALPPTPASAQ

[2] = target: Krueppel-like factor 1 (Homo sapiens) (UniProt Q13351); experiment: Inhibition of GST-tagged KLF1 (unknown origin) binding to double-stranded DNA at 8 uM by electromobility gel shift assay relative to control
[3] = target: T1, Krueppel-like factor 10 (Mus musculus); experiment: Inhibition of KLF10 in mouse CD4+CD25- T cells assessed as reduction in PD1 mRNA expression at 50 uM incubated for 5 days by real time qPCR analysis relative to control; type: cell-based
[4] = target: T1, Krueppel-like factor 10 (Mus musculus); experiment: Inhibition of KLF10 in mouse CD4+CD25- T cells assessed as reduction in Foxp3 mRNA expression incubated for 5 days by real time qPCR analysis relative to control; type: cell-based
[5] = target: T1, Krueppel-like factor 10 (Mus musculus); experiment: Inhibition of KLF10 in mouse CD4+CD25- T cells assessed as reduction in checkpoint markers on iTregs by measuring PD1 expression level; type: cell-based; parameters: scale not given: the % may be the effect or the level left
[6] = target: T1, Krueppel-like factor 10 (Mus musculus); experiment: Inhibition of KLF10 in mouse CD4+CD25- T cells assessed as reduction in checkpoint markers on iTregs by measuring CTLA4 expression level; type: cell-based; parameters: scale not given: the % may be the effect or the level left
[7] = target: Krueppel-like factor 1 (Homo sapiens) (UniProt Q13351); experiment: Inhibition of GST-tagged KLF1 (unknown origin) binding to double-stranded DNA at 40 uM by electromobility gel shift assay relative to control
[8] = target: T1, Krueppel-like factor 10 (Mus musculus); experiment: Inhibition of KLF10 in mouse CD4+CD25- T cells assessed as reduction in checkpoint markers on iTregs by measuring PDL1 expression level; type: cell-based; parameters: scale not given: the % may be the effect or the level left
[9] = system: Mus musculus; experiment: Antitumor activity against mouse TRAMP-C2 cells implanted in mouse assessed as reduction tumor volume at 200 mg/kg, ip dosed on day 3 to 7; type: functional, organism-based
[10] = system: Mus musculus; experiment: Suppression of TGF-beta1 expression in CD4+ T cells isolated from mouse B16 cells implanted mouse at 25 to 100 mg/kg, ip; type: functional, organism-based
[11] = system: B16; experiment: Antitumor activity against mouse B16 cells implanted in mouse assessed as reduction tumor volume at 200 mg/kg, ip dosed on day 3 to 7; type: functional, organism-based
[12] = system: B16; experiment: Antitumor activity against mouse B16cells implanted in mouse assessed as reduction tumor volume at 20 mg/kg dosed via local injection on day 0 and measured from day 4 to day 13; type: functional, organism-based

Krueppel-like factor 1 (Homo sapiens), sequence (Q13351 whole entry): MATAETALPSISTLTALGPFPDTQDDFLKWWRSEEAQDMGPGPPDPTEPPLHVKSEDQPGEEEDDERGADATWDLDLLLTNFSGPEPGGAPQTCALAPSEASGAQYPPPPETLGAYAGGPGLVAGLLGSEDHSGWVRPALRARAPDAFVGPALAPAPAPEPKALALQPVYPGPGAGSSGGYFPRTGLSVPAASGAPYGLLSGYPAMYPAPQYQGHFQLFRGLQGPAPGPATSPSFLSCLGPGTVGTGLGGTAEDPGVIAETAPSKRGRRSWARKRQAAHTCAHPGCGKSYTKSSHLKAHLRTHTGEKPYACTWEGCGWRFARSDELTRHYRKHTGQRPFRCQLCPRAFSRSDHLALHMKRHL

inhibition [1] | inhibition [2] | inhibition [3] | inhibition [4] | Activity [5] | Activity [6] | inhibition [7] | Activity [8] | Compound | inhibition [9] | inhibition [10] | inhibition [11] | Activity [12]
82.5% | inactive | Active | Active | 47.6% | 92% | inactive | 53.1% | COc1ccc(C(=O)COC(=O)c2cc(C)ccc2O)cc1 | – | – | – | –
– | inactive | – | Active | 49.4% | 88.7% | inactive | 43.7% | Cc1ccc(OCC(=O)c2cc(C)c(O)cc2O)cc1 | Active | Active | Active | Active
